Our source for the MIC values is patent publication US3998818A, “Trifluoroethylmercapto, -sulfinyl or -sulfonyl acetamidocephalosporins” (SmithKline Corporation, priority 1975, dated 1976).

≈ marks a conversion by molar mass, not a printed value.

What all share (format): cell-based
One test has as its system S. aureus SK 23390. The test is described as follows: MIC by standard agar inclusion method (S. aureus SK 23390). The conditions noted are these: Staphylococcus aureus, SK23390.
The subject of another test is Pseudo. aeruginosa HH63. The test is described as follows: MIC by standard agar inclusion method (Pseudo. aeruginosa HH63). The conditions noted are these: Pseudomonas aeruginosa.
For another test, the system named is Kleb. pneumo. SK 4200. The test is described as follows: MIC by standard agar inclusion method (Kleb. pneumo. SK 4200).
For a further test, the system named is E. coli HH 33779. The test is described as follows: MIC by standard agar inclusion method (E. coli HH 33779). The conditions noted are these: Escherichia coli, HH33779.
The subject of test [1] is Entero. aerogenes ATCC 13048. The experiment in a line: MIC by standard agar inclusion method (Entero. aerogenes ATCC 13048). The conditions noted are these: Klebsiella aerogenes, ATCC13048.
Another test deals with E. coli SK 12140. The test is described as follows: MIC by standard agar inclusion method (E. coli SK 12140). The conditions noted are these: Escherichia coli, SK12140.
A further test has as its system Strep. faecalis HH 34358. The test is described as follows: MIC by standard agar inclusion method (Strep. faecalis HH 34358). The conditions noted are these: Enterococcus faecalis, HH34358.
The subject of a further test is Kleb. pneumo. SK 1200. The experiment in a line: MIC by standard agar inclusion method (Kleb. pneumo. SK 1200).
A further test concerns S. aureus Villaluz. The test is described as follows: MIC by standard agar inclusion method (S. aureus Villaluz). The conditions noted are these: Staphylococcus aureus.
In a further test the test system is Salmonella ATCC 12176. The experiment in a line: MIC by standard agar inclusion method (Salmonella ATCC 12176). The conditions noted are these: ATCC12176.
Test [2] deals with Serratia marc. ATCC 13880. The test is described as follows: MIC by standard agar inclusion method (Serratia marc. ATCC 13880). The conditions noted are these: ATCC13880.
Another test deals with S. aureus HH 127. The test is described as follows: MIC by standard agar inclusion method (S. aureus HH 127). The conditions noted are these: Staphylococcus aureus, HH127.
A further test relates to Shigella paradysentiae. The test is described as follows: MIC by standard agar inclusion method (Shigella paradysentiae).

One may read the MIC as the lowest concentration found to suppress growth. Low values mean inhibition by little substance, high ones a need for much substance.

As to `Cn1nnnc1SCC1=C(C(=O)O)N2C(=O)C(NC(=O)CSCC(F)(F)F)[C@H]2SC1` (some centres unmarked) [Compound 3, 7-Trifluoroethylmercaptoacetamido-3-(1-methyltetrazol-5-ylthiomethyl)-3-cephem-4-carboxylic acid], the MIC was 0.1 µg/mL (≈ 0.206 µM) against S. aureus SK 23390; more than 200 µg/mL in the test on Pseudo. aeruginosa HH63; 3.1 µg/mL (≈ 6.4 µM) against Kleb. pneumo. SK 4200; 6.3 µg/mL (≈ 13 µM) against E. coli HH 33779; 6.3 µg/mL (≈ 13 µM) in test [1]; 1.6 µg/mL (≈ 3.3 µM) against E. coli SK 12140. In addition, the MIC is 12.5 µg/mL (≈ 25.8 µM) against Strep. faecalis HH 34358; 1.6 µg/mL (≈ 3.3 µM) against Kleb. pneumo. SK 1200; 12.5 µg/mL (≈ 25.8 µM) against S. aureus Villaluz; 0.8 µg/mL (≈ 1.65 µM) in the test on Salmonella ATCC 12176; more than 200 µg/mL in test [2]; 0.2 µg/mL (≈ 0.413 µM) against S. aureus HH 127. Also, the MIC against Shigella paradysentiae was found to be 0.4 µg/mL (≈ 0.826 µM).

For `Cn1nnnc1SCC1=C(C(=O)O)N2C(=O)C(NC(=O)CS(=O)(=O)CC(F)(F)F)[C@H]2SC1` (some centres unmarked) [Compound 5, 7-Trifluoroethylsulfonylacetamido-3-(1-methyltetrazol-5-ylthiomethyl)-3-cephem-4-carboxylic acid], the MIC is 3.1 µg/mL (≈ 6 µM) with S. aureus SK 23390; more than 200 µg/mL in the test on Pseudo. aeruginosa HH63; 3.1 µg/mL (≈ 6 µM) against Kleb. pneumo. SK 4200; 12.5 µg/mL (≈ 24.2 µM) against E. coli HH 33779; 50 µg/mL (≈ 96.8 µM) in [1]; 6.3 µg/mL (≈ 12.2 µM) with E. coli SK 12140. For the same molecule, the MIC against Strep. faecalis HH 34358 was more than 200 µg/mL; against Kleb. pneumo. SK 1200 it was 3.1 µg/mL (≈ 6 µM); in the test with S. aureus Villaluz, 200 µg/mL (≈ 387 µM); in the test with Salmonella ATCC 12176 it was 6.3 µg/mL (≈ 12.2 µM); in test [2], more than 200 µg/mL; in the test with S. aureus HH 127, 3.1 µg/mL (≈ 6 µM). The molecule further yielded an MIC with Shigella paradysentiae of 6.3 µg/mL (≈ 12.2 µM).

Regarding `CC(=O)OCC1=C(C(=O)O)N2C(=O)C(NC(=O)CSCC(F)(F)F)C2SC1` (centres unmarked) [Compound 1, 7-Trifluoroethylmercaptoacetamidocephalosporanic acid], the MIC in the test with S. aureus SK 23390 is 0.4 µg/mL (≈ 0.934 µM); in the test on Pseudo. aeruginosa HH63, more than 200 µg/mL; against Kleb. pneumo. SK 4200 it was 6.3 µg/mL (≈ 14.7 µM); with E. coli HH 33779 it was 50 µg/mL (≈ 117 µM); in test [1], 50 µg/mL (≈ 117 µM); in the test with E. coli SK 12140, 6.3 µg/mL (≈ 14.7 µM). For the same molecule, the minimum inhibitory concentration (MIC) against Strep. faecalis HH 34358 was 25 µg/mL (≈ 58.4 µM); against Kleb. pneumo. SK 1200 it was 3.1 µg/mL (≈ 7.24 µM); against S. aureus Villaluz, 25 µg/mL (≈ 58.4 µM); against Salmonella ATCC 12176, 6.3 µg/mL (≈ 14.7 µM); in test [2], more than 200 µg/mL; with S. aureus HH 127, 0.4 µg/mL (≈ 0.934 µM). Moreover, in the test on Shigella paradysentiae, inhibition of growth (MIC) required 6.3 µg/mL (≈ 14.7 µM).

For the molecule `Cn1nnnc1SCC1=C(C(=O)O)N2C(=O)C(NC(=O)C[S+]([O-])CC(F)(F)F)[C@H]2SC1` (some centres unmarked) [Compound 4, 7-Trifluoroethylsulfinylacetamido-3-(1-methyltetrazol-5-ylthiomethyl)-3-cephem-4-carboxylic acid], the MIC against S. aureus SK 23390 is 0.8 µg/mL (≈ 1.6 µM); against Pseudo. aeruginosa HH63, more than 200 µg/mL; with Kleb. pneumo. SK 4200 it was 0.8 µg/mL (≈ 1.6 µM); against E. coli HH 33779, 3.1 µg/mL (≈ 6.19 µM); in test [1], 6.3 µg/mL (≈ 12.6 µM); against E. coli SK 12140, 0.8 µg/mL (≈ 1.6 µM). For the same molecule, the minimum inhibitory concentration (MIC) in the test with Strep. faecalis HH 34358 is 100 µg/mL (≈ 200 µM); in the test with Kleb. pneumo. SK 1200, 0.4 µg/mL (≈ 0.799 µM); against S. aureus Villaluz, 100 µg/mL (≈ 200 µM); against Salmonella ATCC 12176, 1.6 µg/mL (≈ 3.2 µM); in [2], more than 200 µg/mL; against S. aureus HH 127, 1.6 µg/mL (≈ 3.2 µM). The molecule further came in with an MIC in the test on Shigella paradysentiae of 0.4 µg/mL (≈ 0.799 µM).

`Cc1nnc(SCC2=C(C(=O)O)N3C(=O)C(NC(=O)CSCC(F)(F)F)[C@H]3SC2)s1` (some centres unmarked) [Compound 2, 7-Trifluoroethylmercaptoacetamido-3-(5-methyl-1,3,4-thiadiazol-2-ylthiomethyl)-3-cephem-4-carboxylic acid]: the MIC against S. aureus SK 23390 is 0.1 µg/mL (≈ 0.2 µM); against Pseudo. aeruginosa HH63, more than 200 µg/mL; in the test with Kleb. pneumo. SK 4200, 6.3 µg/mL (≈ 12.6 µM); with E. coli HH 33779 it was 12.5 µg/mL (≈ 25 µM); in test [1], 25 µg/mL (≈ 49.9 µM); in the test with E. coli SK 12140, 6.3 µg/mL (≈ 12.6 µM). Besides, the MIC against Strep. faecalis HH 34358 was 6.3 µg/mL (≈ 12.6 µM); in the test on Kleb. pneumo. SK 1200, 3.1 µg/mL (≈ 6.19 µM); with S. aureus Villaluz, 25 µg/mL (≈ 49.9 µM); with Salmonella ATCC 12176, 6.3 µg/mL (≈ 12.6 µM); in [2], more than 200 µg/mL; against S. aureus HH 127, 0.2 µg/mL (≈ 0.4 µM). This molecule also showed an MIC against Shigella paradysentiae of 1.6 µg/mL (≈ 3.2 µM).
